Converted amounts (≈) assume the structure as drawn. “Also recorded” adds a separate entry of the source.
Assays:
[1] = cited from earlier work
[2] = Solubility assessment: saturated solutions in FaSSIF, FeSSIF, SGF and water, concentration by HPLC; type: physicochemical; conditions: for solubility compared with Form C in prior art: general statement
Experimental: Saturated solution of Form 2 and Form A, Form C disclosed in CN102177144B were prepared in FaSSIF (Fasted state simulated intestinal fluids, pH=6.5), FeSSIF (Fed state simulated intestinal fluids, pH=5.0), SGF (Simulated gastric fluids, pH=1.8), and water. Concentrations in the saturation solutions were measured after 1 hour and 24 hours by HPLC.
Form 3 and Form A, Form C were prepared into saturated solution in FaSSIF (Fasted state simulated intestinal fluids, pH=6.5), FeSSIF (Fed state simulated intestinal fluids, pH=5.0) and water. Concentrations in the saturation solutions were measured after 1 hour and 24 hours by HPLC.

[3] = Stability assessment of crystalline forms on storage (XRPD before and after); type: physicochemical; conditions: for stability compared with Form C in prior art: general statement; for Solid Form after storage / Crystalline form after storing: XRPD; for physical stability (overall conclusion): storage conditions of the stability assessment
Experimental: 20 mg of sample of Form 2 was stored under 25° C./60% RH, 40° C./75% RH for 6 months, and 80° C. for 3 months. […] 20 mg of sample of Form 3 was stored under 25° C./60% RH and 40° C./75% RH for 6 months.

[4] = treatment of moderate-to-severe chronic plaque psoriasis; cited from earlier work

Row | solubility compared with Form C in prior art [2] | stability compared with Form C in prior art [3] | Solubility ([2]; FaSSIF pH=6.5, 1 h) | Solubility ([2]; FaSSIF pH=6.5, 24 h) | Solubility ([2]; FeSSIF pH=5.0, 1 h) | Solubility ([2]; FeSSIF pH=5.0, 24 h) | Solubility ([2]; SGF pH=1.8, 1 h) | Solubility ([2]; SGF pH=1.8, 24 h) | SMILES | other results
1 | – | – | – | – | – | – | – | – | CCC/N=C1\S/C(=C\c2ccc(OC[C@H](O)CO)c(Cl)c2)C(=O)N1c1ccccc1C [Form III, Ponesimod] | form transformation ([1]; at room temperature): will transform to Form II at room temperature
2 | better | better | – | – | – | – | – | – | CCC/N=C1\S/C(=C\c2ccc(OC[C@H](O)CO)c(Cl)c2)C(=O)N1c1ccccc1C [Form 1, Ponesimod] | –
3 | – | – | 7 µg/mL (≈ 15.2 µM) | 4 µg/mL (≈ 8.68 µM) | 141 µg/mL (≈ 306 µM) | 163 µg/mL (≈ 354 µM) | 34 µg/mL (≈ 73.8 µM) | 45 µg/mL (≈ 97.6 µM) | CCC/N=C1\S/C(=C\c2ccc(OC[C@H](O)CO)c(Cl)c2)C(=O)N1c1ccccc1C [Form A, Ponesimod, reference compound] | thermodynamic stability ([1]; compared with Form C): inferior to Form C
4 | better | better | 17 µg/mL (≈ 36.9 µM) | 33 µg/mL (≈ 71.6 µM) | 996 µg/mL (≈ 2160 µM) | 813 µg/mL (≈ 1760 µM) | 97 µg/mL (≈ 210 µM) | 124 µg/mL (≈ 269 µM) | CCC/N=C1\S/C(=C\c2ccc(OC[C@H](O)CO)c(Cl)c2)C(=O)N1c1ccccc1C [Form 2, Ponesimod] | solubility compared with Form A and Form C ([2]; in FaSSIF, FeSSIF, and SGF): higher; Solid Form after storage ([3]; 25° C./60% RH, 6 months): doesn't change; also recorded: Form 2; Solid Form after storage ([3]; 40° C./75% RH, 6 months): doesn't change; also recorded: Form 2; Solid Form after storage ([3]; 80° C., 3 months): doesn't change; also recorded: Form 2; physical stability (overall conclusion) [3]: good physical stability
5 | – | – | 10 µg/mL (≈ 21.7 µM) | – | 133 µg/mL (≈ 289 µM) | 149 µg/mL (≈ 323 µM) | 29 µg/mL (≈ 62.9 µM) | 24 µg/mL (≈ 52.1 µM) | CCC/N=C1\S/C(=C\c2ccc(OC[C@H](O)CO)c(Cl)c2)C(=O)N1c1ccccc1C [Form C, Ponesimod, reference compound] | solubility at 1 h ([2]; water, thermodynamic from solid, H2O, 1 h, ND = below the LOD of instrument): 3 µg/mL (≈ 6.51 µM); solubility at 24 h ([2]; water, thermodynamic from solid, H2O, 24 h, ND = below the LOD of instrument): 1 µg/mL (≈ 2.17 µM); solubility (in words) [1]: unsatisfactory
6 | better | better | 84 µg/mL (≈ 182 µM) | 15 µg/mL (≈ 32.5 µM) | 1168 µg/mL (≈ 2530 µM) | 486 µg/mL (≈ 1050 µM) | – | – | CCC/N=C1\S/C(=C\c2ccc(OC[C@H](O)CO)c(Cl)c2)C(=O)N1c1ccccc1C [Form 3, Ponesimod] | solubility compared with Form A and Form C ([2]; in FaSSIF and FeSSIF): higher; Crystalline form after storing ([3]; 25° C./60% RH, 6 months): doesn't change; also recorded: Form 3; Crystalline form after storing ([3]; 40° C./75% RH, 6 months): doesn't change; also recorded: Form 3; physical stability (overall conclusion) [3]: good physical stability
7 | – | – | – | – | – | – | – | – | CCC/N=C1\S/C(=C\c2ccc(OC[C@H](O)CO)c(Cl)c2)C(=O)N1c1ccccc1C [Ponesimod] | result of phase II mid-stage study [4]: positive results

Source: US10487064B1, “Crystalline forms of selective S1P1 receptor modulator and preparation method thereof” (Crystal Pharmatech Co., Ltd., priority 2015, dated 2019)
